Source: patent US20240342120A1, “MULTIPLE MYELOMA TREATMENT” (Vanda Pharmaceuticals Inc., priority 2013, published 2024)

What was measured:
Type in all cases: cell-based
CDC2 = experiment: Affymetrix gene expression, CDC2, cells treated 24 hours; conditions: probe 203214_x_at; human retinal pigment epithelial cell line; 24 hours vs vehicle; Instance ID 10005533
Procedure: (§1) A human retinal pigment epithelial cell line was treated with trichostatin or vehicle for 24 hours and gene expression for 22,238 probe sets covering 12,490 genes was generated using an Affymetrix instrument.

TOP2A = experiment: Affymetrix gene expression, TOP2A, cells treated 24 hours; conditions: human retinal pigment epithelial cell line, 24 hours vs vehicle
Procedure: as §1

[1] = system: CCNB1, AURKB, CDC2, BIRC5, KIF11, KIF2C, TOP2A, ASPM, CKS1B, and WEE1; experiment: Affymetrix gene expression, ten-gene summary, cells treated 24 hours; conditions: human retinal pigment epithelial cell line; 24 hours vs vehicle; summary in words of Table 1
Procedure: as §1

With CC(/C=C/C(=O)NO)=C\[C@@H](C)C(=O)c1ccc(N(C)C)cc1 [trichostatin A, 7-[4-(dimethylamino)phenyl]-N-hydroxy-4,6-dimethyl-7-oxohepta-2,4-dienamide] the “Fold Expression Δ, CDC2” value (CDC2) was −11.83 Fold, the “Fold Expression Δ, TOP2A” value (TOP2A; probe 201291_s_at, Instance ID 10005533) was −28.22 Fold and the “Fold Expression Δ, TOP2A” value (TOP2A; probe 201292_at, Instance ID 10005532) was −31.95 Fold. For the same compound, the “effect on expression of CCNB1, AURKB, CDC2, BIRC5, KIF11, KIF2C, TOP2A, ASPM, CKS1B, and WEE1” value [1] was “significant downregulation”.
